The structures appear in SMILES notation. pIC50: −log10 of the molar value.

The subject of one assay is tobacco smoke induced recruitment of inflammatory cells to the lungs. Briefly: Tobacco smoke (TS) model, lungs inflammatory cells recruitment. The class given is in vivo, female C57BL/6J mice. The following applies: 3 mg/kg twice daily p.o., TS-exposed mice. The procedure: The aim of this experiment is to evaluate the efficacy and potency of a test compound administered p.o., once or twice daily on days 6 to 11, vs reference compounds, on pulmonary inflammation induced by 11 days of TS-exposure in female C57BL/6J mice, by assessing the effect of a test compound on the tobacco smoke induced recruitment of inflammatory cells to the lungs.
The test compounds are formulated in PEG200/0.5% methylcellulose (25/75, v/v) and are given at a dose volume of 10 mL/kg. Roflumilast and Dexamethasone are included as positive […] control, respectively. Each treatment group consists of 10 mice.
A first group of mice is subjected to daily TS-exposure for 5 consecutive days and sacrificed on the day 6, 24 h after the final TS-exposure.
A second group is exposed to air for 5 consecutive days (sham exposure) and sacrificed on the day 6, 24 h after the final air-exposure.
Compound and reference-treated groups are subjected to daily TS-exposure for 11 consecutive days and sacrificed on the day 12, 24 h after the final TS-exposure. Mice are dosed p.o. on days 6 to 11, twice daily, 1 h prior to and 6 h after each TS-exposure, with either vehicle, or the test compound at 3, 5, 10 or 30 mg/kg. Another group is dosed p.o. on days 6 to 11, once daily, 1 h prior to each TS-exposure, with either vehicle, or the test compound at 10 mg/kg.
An additional group is dosed p.o., once daily, on days 6 to 11, with roflumilast at 5 mg/kg, 1 h prior to each TS-exposure. Dexamethasone is dosed p.o., twice daily, on days 6 to 11, at 0.3 mg/kg, 1 h prior to and 6 h after each TS-exposure.
For each mouse, a BAL is performed using 0.4 mL of PBS. The lavage fluid is centrifuged, the supernatant removed and the resulting cell pellet re-suspended for total cell counts and cytospin slide preparation. […]
The lungs are dissected out and the left lobes are removed, snap-frozen and stored at −80° C. […] Cell data are presented as individual data points for each animal and the mean value calculated for each group. […]
Percentage inhibitions for the cell data are calculated using the formula below: […]
In the case of `CCc1nc2c(C)cc(N3CCN(CC(=O)N4CC(O)C4)CC3)cn2c1N(C)c1nc(-c2ccc(F)cc2)c(C#N)s1` [Compound 2, 2-((2-ethyl-6-(4-(2-(3-hydroxyazetidin-1-yl)-2-oxoethyl)piperazin-1-yl)-8-methylimidazo[1,2-a]pyridin-3-yl)(methyl)amino)-4-(4-fluorophenyl)thiazole-5-carbonitrile], the “number of cells recovered in the BALF (macrophage cells, epithelial cells, neutrophils)” value is reported as “significantly inhibited”.

Staying with this assay, now noted: 10 mg/kg twice daily p.o., TS-exposed mice.
With `CCc1nc2c(F)cc(N3CCN(CC(=O)N4CC(O)C4)CC3)cn2c1N(C)c1nc(-c2ccc(F)cc2)c(C#N)s1` [Compound 12, 2-((2-ethyl-8-fluoro-6-(4-(2-(3-hydroxyazetidin-1-yl)-2-oxoethyl)piperazin-1-yl)imidazo[1,2-a]pyridin-3-yl)(methyl)amino)-4-(4-fluorophenyl)thiazole-5-carbonitrile], the “number of cells recovered in the BALF (macrophage cells, epithelial cells, neutrophils)” value is listed as “significantly inhibited”.
The same measure, in the same setting: the value for `CCc1nc2c(C)cc(N3CCN(CC(=O)N4CC(O)C4)CC3)cn2c1N(C)c1nc(-c2ccc(F)cc2)c(C#N)s1` [Compound 2, 2-((2-ethyl-6-(4-(2-(3-hydroxyazetidin-1-yl)-2-oxoethyl)piperazin-1-yl)-8-methylimidazo[1,2-a]pyridin-3-yl)(methyl)amino)-4-(4-fluorophenyl)thiazole-5-carbonitrile] was “significantly inhibited”.

The next assay has as its system LPA 18:2. The experiment in a line: Human whole blood (plasma) LPA assay. It is filed as biochemical. The following applies: 2 h at 37° C., LPA 18:2 by LC-MS/MS. How it is done: Blood is collected from healthy volunteers who gave informed consent into sodium heparin tubes by venipuncture, then gently inverted several times to prevent clotting. Tubes are centrifuged at 3000 rpm for 15 min at 4° C. then plasma is stored at −80° C. Compounds are diluted in DMSO in concentration dependent manner then 0.5 μL are dispensed into 96-well plate placed in ice. Plasma is defrosted on ice then 49.5 μL of plasma are added into the well containing 0.5 μL of compound (1% DMSO final). Plates are covered with a lid in polypropylene and incubated at +37° C., 5% CO2, for 2 h under gentle shaking (except controls which are stored at −20° C.).
(§1) At the end of the incubation, controls are defrosted in ice and transferred in the incubated plates for LC-MS/MS analysis with a non GLP-validated method. For the analysis, plasma proteins from a 10 μL incubated plates are precipitated with an excess of methanol containing the internal standard, LPA 17:0. After centrifugation, the corresponding supernatant is injected on a C18 column. Analytes are eluted out of the column under isocratic conditions. An API5500 QTRAP mass spectrometer (ABSciex™) is used for the detection of LPA 18:2. No calibration curve is prepared for LPA 18:2, however relative quantities are evaluated based on the peak area.
What is called pIC50 is the negative decadic logarithm of the IC50, by convention in mol/L. The compound `CCc1nc2ccc(C3CCN(CC(=O)N4CC(O)C4)CC3)cn2c1N(C)c1nc(-c2ccc(F)cc2)cs1` [Compound 110, 2-(4-(2-ethyl-3-((4-(4-fluorophenyl)thiazol-2-yl)(methyl)amino)imidazo[1,2-a]pyridin-6-yl)piperidin-1-yl)-1-(3-hydroxyazetidin-1-yl)ethanone] showed a negative logarithm of the IC50 (pIC50) of less than 6.00.
On the same count and under the same terms, the value for `CCc1nc2ccc(C3CCN(S(C)(=O)=O)CC3)cn2c1N(C)c1nc(-c2ccc(F)cc2)cs1` [Compound 80, N-(2-ethyl-6-(1-(methylsulfonyl)piperidin-4-yl)imidazo[1,2-a]pyridin-3-yl)-4-(4-fluorophenyl)-N-methylthiazol-2-amine] was less than 6.00.

The next assay has as its system LPA 18:2. The experiment in a line: Rat whole blood (plasma) LPA assay. The class given is biochemical. The settings on record: 2 h at 37° C., LPA 18:2 by LC-MS/MS. The procedure: Whole blood is collected from rats or mouse by exsanguinations on sodium heparin tube, then after centrifugation at 3000 rpm for 15 min at 4° C., plasma is stored at −80° C. Compounds are diluted in DMSO in concentration dependent manner then 0.5 μL are dispensed into 96-well plate placed in ice. Plasma is defrosted on ice then 49.5 μL of plasma are added into the well containing 0.5 μL of compound (1% DMSO final). Plates are covered with a lid in polypropylene and incubated at +37° C., 5% CO2, for 2 h under gentle shaking (except controls which are stored at −20° C.).
as §1
For the compound `CCc1nc2ccc(C3CCN(CC(=O)N4CC(O)C4)CC3)cn2c1N(C)c1nc(-c2ccc(F)cc2)cs1` [Compound 110, 2-(4-(2-ethyl-3-((4-(4-fluorophenyl)thiazol-2-yl)(methyl)amino)imidazo[1,2-a]pyridin-6-yl)piperidin-1-yl)-1-(3-hydroxyazetidin-1-yl)ethanone], the negative logarithm of the IC50 (pIC50) is less than 6.00.
On the same count and under the same terms, the value for `CCc1nc2c(F)cc(N3CCN(CC(=O)N4CC(O)C4)CC3)cn2c1N(C)c1nc(-c2ccc(F)cc2)c(C#N)s1` [Compound 12, 2-((2-ethyl-8-fluoro-6-(4-(2-(3-hydroxyazetidin-1-yl)-2-oxoethyl)piperazin-1-yl)imidazo[1,2-a]pyridin-3-yl)(methyl)amino)-4-(4-fluorophenyl)thiazole-5-carbonitrile] was 7.00 to 11.00; that for `CCc1nc2ccc(C3CCN(CC(=O)N(C)C)CC3)cn2c1N(C)c1nc(-c2ccc(F)cc2)c(C#N)s1` [Compound 145, 2-(4-(3-((5-cyano-4-(4-fluorophenyl)thiazol-2-yl)(methyl)amino)-2-ethylimidazo[1,2-a]pyridin-6-yl)piperidin-1-yl)-N,N-dimethylacetamide] was 7.00 to 11.00; that for `CN(c1nc(-c2ccc(F)cc2)c(CO)s1)c1c(CCC#N)nc2ccc(C3CCN(S(C)(=O)=O)CC3)cn12` [Compound 175, 3-(3-((4-(4-fluorophenyl)-5-(hydroxymethyl)thiazol-2-yl)(methyl)amino)-6-(1-(methylsulfonyl)piperidin-4-yl)imidazo[1,2-a]pyridin-2-yl)propanenitrile] was 7.00 to 11.00.
For `CCc1nc2ccc(C3CCN(CC(=O)N4CC(O)C4)CC3)cn2c1N(C)c1nc(-c2ccc(F)cc2)c(CO)s1` [Compound 156, 2-(4-(2-ethyl-3-((4-(4-fluorophenyl)-5-(hydroxymethyl)thiazol-2-yl)(methyl)amino)imidazo[1,2-a]pyridin-6-yl)piperidin-1-yl)-1-(3-hydroxyazetidin-1-yl)ethanone], the negative logarithm of the IC50 (pIC50) was less than 6.00.
`CCc1nc2ccc(N3CCN(S(=O)(=O)CCCN(C)C)CC3)cn2c1N(C)c1nc(-c2ccc(F)cc2)cs1` [Compound 56, N-(6-(4-(3-(dimethylamino)propylsulfonyl)piperazin-1-yl)-2-ethylimidazo[1,2-a]pyridin-3-yl)-4-(4-fluorophenyl)-N-methylthiazol-2-amine] showed a negative logarithm of the IC50 (pIC50) of less than 6.00.
Still for that read-out and setting: with `CCc1nc2cc(F)c(N3CCN(CC(=O)N4CC(O)C4)CC3)cn2c1N(C)c1nc(-c2ccc(F)cc2)cs1` [Compound 19, 2-[4-(2-Ethyl-7-fluoro-3-{[4-(4-fluoro-phenyl)-thiazol-2-yl]-methyl-amino}-imidazo[1,2-a]pyridin-6-yl)-piperazin-1-yl]-1-(3-hydroxy-azetidin-1-yl)-ethanone] the figure was less than 6.00.
The same measure, in the same setting: the value for `CCc1nc2ccc(N3CCN(CC(=O)N4CC[C@@H](O)C4)CC3)cn2c1N(C)c1nc(-c2ccc(F)cc2)cs1` [Compound 26, (R)-2-(4-(2-ethyl-3-((4-(4-fluorophenyl)thiazol-2-yl)(methyl)amino)imidazo[1,2-a]pyridin-6-yl)piperazin-1-yl)-1-(3-hydroxypyrrolidin-1-yl)ethanone] was less than 6.00; that for `CN(C)C(=O)CN1CCC(c2ccc3nc(CCC#N)c(N(C)c4nc(-c5ccc(F)cc5)cs4)n3c2)CC1` [Compound 174, 2-(4-(2-(2-cyanoethyl)-3-((4-(4-fluorophenyl)thiazol-2-yl)(methyl)amino)imidazo[1,2-a]pyridin-6-yl)piperidin-1-yl)-N,N-dimethylacetamide] was 7.00 to 11.00; that for `CCc1nc2ccc(C3=CCN(S(C)(=O)=O)CC3)cn2c1N(C)c1nc(-c2ccc(F)cc2)cs1` [Compound 66, N-(2-ethyl-6-(1-(methylsulfonyl)-1,2,3,6-tetrahydropyridin-4-yl)imidazo[1,2-a]pyridin-3-yl)-4-(4-fluorophenyl)-N-methylthiazol-2-amine] was less than 6.00.
The same measure, in the same setting: the value for `CCc1nc2ccc(C3CCN(CC(=O)N4CC[C@H](O)C4)CC3)cn2c1N(C)c1nc(-c2ccc(F)cc2)c(C#N)s1` [Compound 143, (S)-2-((2-ethyl-6-(1-(2-(3-hydroxypyrrolidin-1-yl)-2-oxoethyl)piperidin-4-yl)imidazo[1,2-a]pyridin-3-yl)(methyl)amino)-4-(4-fluorophenyl)thiazole-5-carbonitrile] was 7.00 to 11.00; that for `CCc1nc2ccc(C3CCN(CC(=O)N4CC[C@@H](O)C4)CC3)cn2c1N(C)c1nc(-c2ccc(F)cc2)c(C#N)s1` [Compound 142, (R)-2-((2-ethyl-6-(1-(2-(3-hydroxypyrrolidin-1-yl)-2-oxoethyl)piperidin-4-yl)imidazo[1,2-a]pyridin-3-yl)(methyl)amino)-4-(4-fluorophenyl)thiazole-5-carbonitrile] was 7.00 to 11.00; that for `CCc1nc2ccc(N3CCN(C(=O)C4CCCN4)CC3)cn2c1N(C)c1nc(-c2ccc(F)cc2)cs1` (centres unmarked) [Compound 46, (4-(2-ethyl-3-((4-(4-fluorophenyl)thiazol-2-yl)(methyl)amino)imidazo[1,2-a]pyridin-6-yl)piperazin-1-yl)(pyrrolidin-2-yl)methanone] was less than 6.00.
Compound `CCc1nc2ccc(N3CCN(C(=O)C4CCN(C(C)=O)C4)CC3)cn2c1N(C)c1nc(-c2ccc(F)cc2)cs1` (centres unmarked) [Compound 48, 1-{3-[4-(2-Ethyl-3-{[4-(4-fluoro-phenyl)-thiazol-2-yl]-methyl-amino}-imidazo[1,2-a]pyridin-6-yl)-piperazine-1-carbonyl]-pyrrolidin-1-yl}-ethanone] gave a negative logarithm of the IC50 (pIC50) of less than 6.00.
`CCc1nc2ccc(N3CCN(C(=O)CCCN(C)C)CC3)cn2c1N(C)c1nc(-c2ccc(F)cc2)cs1` [Compound 53, 4-(dimethylamino)-1-(4-(2-ethyl-3-((4-(4-fluorophenyl)thiazol-2-yl)(methyl)amino)imidazo[1,2-a]pyridin-6-yl)piperazin-1-yl)butan-1-one] had a negative logarithm of the IC50 (pIC50) of less than 6.00.

(Values after patent publication US11072611B2, “Compounds and pharmaceutical compositions thereof for the treatment of inflammatory disorders” (Galapagos NV, priority 2013, dated 2021).)
